Consider eight compounds from patent US4555572A, “Pyrazolo[3,4,5-kl]acridine compositions and methods for their production and use” (Warner-Lambert Company, priority 1984, dated 1985).

Test [1] has as its system lymphocytic leukemia P388. As to the kind of experiment: in vivo lymphocytic leukemia P388 test. The conditions noted are these: Mus musculus, P388, ip, 120 h. Also on record: species or system CD2 F1 mice. An outline of the steps:
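CD2 F1 mice (6–7 per group) inoculated i.p. with P388 ascitic cells; compound dosed i.p. once daily for 5 consecutive days after inoculation. Survival followed 30 days; efficacy as treated/control survival time ×100 (≥125 criterion); "toxic" if all animals died within 4 days of first dose.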

The next test concerns L1210 cells. The test is described as follows: PDC test, L1210 cell growth. Particulars: Mus musculus, read-out: PDC ID50. It is filed as cell-based, murine. The method, then:
(c) Another test protocol is the PDC test. L1210 cells, a murine leukemia cell line, were grown in RPMI 1640 supplemented with 10% fetal bovine serum and genamicin (50 μg/ml). Drug dilutions were prepared in the appropriate solvent and 20 μl of each dilution were added to 24-well Linbro tissue culture plates followed by the addition of 2.0 ml of cell suspension containing 3×10^4 cells per ml. Solvent and medium controls were included in each test. After incubation at 37° C. for three days in 5% CO2 in air, the contents of each well were removed and the cells counted in a ZBI Coulter counter. Per cent growth was calculated relative to the controls and the levels of drug activity were expressed as ID50 in terms of molarity (M).

The next test relates to HCT-8 cells. The test is described as follows: in vitro proliferating human colon adenocarcinoma (HCA) cell screen, HCT-8. The class given is cell-based. The method, then:
(a) One test protocol is the in vitro proliferating human colon adenocarcinoma (HCA) cell screen. In this test, HCT-8 cells (HCA cell line received from Yale University) are trypsinized using trypsin-EDTA. A single cell suspension is achieved by passing the cells through a 26 gauge needle with a 20-cc syringe. A cell suspension is prepared using RPMI 1640+10% FCS+50 μg/ml gentamicin sulfate with a cell concentration is approximately 30,000 cells/ml. The cell suspension is dispensed in Linbro 24-well plates; 1 ml/well. The plates are incubated for approximately 48 hours at 37° C. in a 5% CO2 atmosphere. At this time test compounds are added in the appropriate concentration. Five μl of the 200 μg/ml stock solution is added to each well in a primary test. […] of the appropriate dilution is added to each well for a titration test. The plates are reincubated an additional 60 to 65 hours at 37° C. in a 5% CO 2 atmosphere. The cells are lysed using a mix of cationic surfactant, glacial acetic acid, and sodium chloride. Two ml of the lysed cell suspension from each well is added to 8 ml of diluent. The number of nuclei is determined using a Coulter counter (ZBI model), and a percent growth for each drug concentration is calculated. From this, and ID50 (molar concentration of compound that results in 50% inhibition of growth) is determined.

A further test deals with Alcaligenes viscolactis. As to the kind of experiment: in vitro antibacterial (ABMF) microdilution susceptibility test. The conditions noted are these: read-out: ABMF Test M.I.C. A. visc. The class given is cell-based. In short, it runs like this:
(§1)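 Standard microdilution susceptibility in Mueller-Hinton broth: inoculated wells contain test compound at 1000, 333, 111, 37, 12, 4, 1.4 and 0.46 μg/mL.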
(In general: Broth dilution looks for growth in wells or tubes with falling amounts of substance.)

The test system of a further test is Branhamella catarrhalis. The description is as above. The class given is cell-based. Particulars: Moraxella catarrhalis, read-out: ABMF Test M.I.C. B. cata. An outline of the steps:
as §1

A further test has as its system Streptococcus pneumoniae. The test is described as above. It is filed as cell-based. Particulars: read-out: ABMF Test M.I.C. S. pneu. An outline of the steps:
as §1

In another test the test system is Bacillus cereus. The test is described as above. It is filed as cell-based. Particulars: read-out: ABMF Test M.I.C. B. cere. In short, it runs like this:
as §1

The next test has as its system Escherichia coli. Described as above. It is filed as cell-based. The conditions noted are these: read-out: ABMF Test M.I.C. E. coli. In short, it runs like this: as §1
The mark [2] stands for this setting: read-out: P388 in vivo T/C × 100, 6.25 mg/kg, intraperitoneally once daily for five days.
Setting [3] is: read-out: P388 in vivo T/C × 100, 12.5 mg/kg, intraperitoneally once daily for five days.
Setting [4] is: read-out: P388 in vivo T/C × 100, 25 mg/kg, intraperitoneally once daily for five days.
[5] abbreviates: 12.5 mg/kg, intraperitoneally once daily for five days, read-out: P388 in vivo T/C × 100.
Where [6] appears, read: 25 mg/kg, intraperitoneally once daily for five days, read-out: P388 in vivo T/C × 100.
Where [7] appears, read: 50 mg/kg, intraperitoneally once daily for five days, read-out: P388 in vivo T/C × 100.
The mark [8] stands for this setting: Mueller-Hinton broth, 37° C., 16-24 hours.
Where [9] appears, read: 6.25 mg/kg, intraperitoneally once daily for five days, read-out: P388 in vivo T/C × 100.
Setting [10] is: HCT-8, read-out: HCA in vitro ID50 avg.

Where a name gives a salt, the structure may show the parent alone. Read-outs that look alike come from different tables or passages of the source. Some results are limits rather than exact numbers.

On to `COc1ccc2c(c1)-c1nn(CCCN(C)C)c3ccc([N+](=O)[O-])c(c13)N2` [Example 45, 9-Methoxy-N,N-dimethyl-5-nitropyrazolo[3,4,5-kl]acridine-2(6H)-propanamine,methanesulfonate], for which the response vs control in vivo at 6.25 mg/kg in test [1] (setting [2]) turned out to be 189%. Further, in test [1] (setting [3]), the response vs control in vivo at 12.5 mg/kg stood at 227%. Also, in test [1] (setting [4]), the response vs control in vivo at 25 mg/kg was 261%. Further, the IC50 in the test on L1210 cells (L1210, 72 h) amounted to 420 nM; with HCT-8 cells (HCT-8, read-out: HCA ED50 Avg.), 140 nM. The MIC in the test with Alcaligenes viscolactis was under 0.46 µg/mL; in the test on Branhamella catarrhalis it was 1.4 µg/mL; in the test on Streptococcus pneumoniae it was under 0.46 µg/mL; in the test on Bacillus cereus, 1.4 µg/mL; in the test on Escherichia coli it was 12.3 µg/mL.

In the case of `CCNCCn1nc2c3c(c([N+](=O)[O-])ccc31)Nc1ccc(OC)cc1-2` [Example 36, N-Ethyl-9-methoxy-5-nitropyrazolo[3,4,5-kl]acridine-2(6H)-ethanamine, 1.25 methanesulfonate salt (4:5), hemihydrate], the response vs control in vivo at 12.5 mg/kg in test [1] (setting [5]) worked out at 169%. In addition, the response vs control in vivo at 25 mg/kg in test [1] (setting [6]) worked out at 160%. In addition, the response vs control in vivo at 50 mg/kg in test [1] (setting [7]) amounted to 223%. In addition, the IC50 is 210 nM with L1210 cells (72 h, L1210 cells, three days) and 120 nM in the test on HCT-8 cells (HCT-8 cells, 60 to 65 hours, ED50, read-out: HCA ED50 Avg.). Moreover, the MIC is under 0.46 µg/mL in the test on Alcaligenes viscolactis (setting [8]); under 0.46 µg/mL in the test with Branhamella catarrhalis (setting [8]); under 0.46 µg/mL in the test with Streptococcus pneumoniae (setting [8]); 1.4 µg/mL in the test on Bacillus cereus (setting [8]); 1.4 µg/mL with Escherichia coli (setting [8]).

On to `CCN(CC)CCCn1nc2c3c(c([N+](=O)[O-])ccc31)Nc1ccc(OC)cc1-2` [Example 43, N,N-Diethyl-9-methoxy-5-nitropyrazolo[3,4,5-kl]acridine-2(6H)-propanamine, methanesulfonate, hydrate (1:1)], for which, in test [1] (setting [9]), the response vs control in vivo at 6.25 mg/kg came out at 165%. Further, the response vs control in vivo at 12.5 mg/kg in test [1] (setting [5]) was 184%. The response vs control in vivo at 50 mg/kg in test [1] (setting [7]) came out at 202%. Further, the IC50 with L1210 cells (72 h, L1210 cells, three days) came to 1300 nM. For the same compound, the MIC was under 0.46 µg/mL in the test on Alcaligenes viscolactis (setting [8]); 4.1 µg/mL in the test on Branhamella catarrhalis (setting [8]); under 0.46 µg/mL in the test on Streptococcus pneumoniae (setting [8]); 4.1 µg/mL in the test on Bacillus cereus (setting [8]); 1.4 µg/mL in the test on Escherichia coli (setting [8]).

As to `CN(C)CCn1nc2c3c(c([N+](=O)[O-])ccc31)Nc1ccc(N(C)C)cc1-2` [Example 39, 9-(Dimethylamino)-N,N-dimethyl-5-nitropyrazolo[3,4,5-kl]acridine-2(6H)-ethanamine, methanesulfonate (1:2), dihydrate], the response vs control in vivo at 6.25 mg/kg in test [1] (setting [9]) is 126%. The response vs control in vivo at 12.5 mg/kg in test [1] (setting [5]) was 164%. Besides, the response vs control in vivo at 25 mg/kg in test [1] (setting [6]) was 189%. The IC50 with L1210 cells (72 h, L1210 cells, three days) came to 600 nM. Further, the MIC with Alcaligenes viscolactis (setting [8]) was determined as 1.4 µg/mL; in the test with Branhamella catarrhalis (setting [8]), 12.3 µg/mL; in the test with Streptococcus pneumoniae (setting [8]) it was 1.4 µg/mL; with Bacillus cereus (setting [8]), 12.3 µg/mL; with Escherichia coli (setting [8]) it was 12.3 µg/mL.

Turning to `COc1ccc2c(c1)-c1nn(CCN(C)C)c3c([N+](=O)[O-])cc([N+](=O)[O-])c(c13)N2` [Example 54, 9-Methoxy-N,N-dimethyl-3,5-dinitropyrazolo[3,4,5-kl]acridine-2(6H)-ethanamine, methanesulfonate (1:1), hydrate], in test [1] (read-out: P388 in vivo T/C × 100, 1.56 mg/kg, intraperitoneally once daily for five days), the response vs control in vivo at 1.56 mg/kg worked out at 132%. Moreover, in test [1] (read-out: P388 in vivo T/C × 100, 3.12 mg/kg, intraperitoneally once daily for five days), the response vs control in vivo at 3.12 mg/kg stood at 137%. In addition, the response vs control in vivo at 6.25 mg/kg in test [1] (setting [2]) was 169%. The response vs control in vivo at 12.5 mg/kg in test [1] (setting [3]) was determined as 236%. Further, the IC50 in the test with L1210 cells (L1210, 72 h) turned out to be 220 nM; with HCT-8 cells (setting [10]), 55 nM. In addition, the MIC with Alcaligenes viscolactis, in the test on Branhamella catarrhalis, in the test on Streptococcus pneumoniae, in the test on Bacillus cereus and with Escherichia coli was 0.46 µg/mL each time.

As for `CCN(CC)CCn1nc2c3c(c([N+](=O)[O-])cc([N+](=O)[O-])c31)Nc1ccc(OC)cc1-2` [Example 50, N,N-Diethyl-9-methoxy-3,5-dinitropyrazolo[3,4,5-kl]acridine-2(6H)-ethanamine, methanesulfonate (1:1), hydrate], in test [1] (setting [2]), the response vs control in vivo at 6.25 mg/kg amounted to 160%. Further, in test [1] (setting [3]), the response vs control in vivo at 12.5 mg/kg stood at 166%. Moreover, in test [1] (setting [4]), the response vs control in vivo at 25 mg/kg was 169%. For the same compound, the response vs control in vivo at 50 mg/kg in test [1] (read-out: P388 in vivo T/C × 100, 50 mg/kg, intraperitoneally once daily for five days) stood at 226%. The IC50 in the test with L1210 cells (L1210, 72 h) came out at 400 nM; with HCT-8 cells (setting [10]), 66 nM. Moreover, the MIC is under 0.46 µg/mL with Alcaligenes viscolactis; under 0.46 µg/mL in the test on Branhamella catarrhalis; under 0.46 µg/mL in the test with Streptococcus pneumoniae; 4.1 µg/mL in the test with Bacillus cereus; under 0.46 µg/mL in the test on Escherichia coli.

`CC(=O)Oc1ccc2c(c1)-c1nn(CCCN(C)C)c3ccc([N+](=O)[O-])c(c13)N2` [Example 47, 2-[3-(Dimethylamino)propyl]-5-nitropyrazolo[3,4,5-kl]acridin-9-ol, acetate (ester), methanesulfonate (salt) (1:1)]: the response vs control in vivo at 0.39 mg/kg in test [1] (0.39 mg/kg, intraperitoneally once daily for five days, read-out: P388 in vivo T/C × 100) is 144%. In addition, the response vs control in vivo at 0.78 mg/kg in test [1] (0.78 mg/kg, intraperitoneally once daily for five days, read-out: P388 in vivo T/C × 100) stood at 178%. The IC50 with L1210 cells (72 h, L1210 cells, three days) was 1.9 nM. In addition, the MIC in the test with Alcaligenes viscolactis (setting [8]), in the test with Branhamella catarrhalis (setting [8]), in the test with Streptococcus pneumoniae (setting [8]), with Bacillus cereus (setting [8]) and in the test on Escherichia coli (setting [8]) was under 0.46 µg/mL each time.

For the compound `CCOC(=O)Oc1ccc2c(c1)-c1nn(CCN(CC)CC)c3ccc([N+](=O)[O-])c(c13)N2` [Example 32, [2-[2-(Diethylamino)ethyl]-2,6-dihydro-5-nitropyrazolo [3,4,5-kl]acridin-9-yl]carbonic acid ethyl ester, methanesulfonate (salt) (1:1)], in test [1] (3.12 mg/kg, intraperitoneally once daily for five days, read-out: P388 in vivo T/C × 100), the response vs control in vivo at 3.12 mg/kg amounted to 208%. Further, in test [1] (setting [9]), the response vs control in vivo at 6.25 mg/kg came to 168%. In addition, the IC50 in the test on L1210 cells (72 h, L1210 cells, three days) turned out to be 3.2 nM. For the same compound, the MIC with Alcaligenes viscolactis (setting [8]) is under 0.46 µg/mL; in the test with Branhamella catarrhalis (setting [8]), 1.4 µg/mL; with Streptococcus pneumoniae (setting [8]), under 0.46 µg/mL; with Bacillus cereus (setting [8]), under 0.46 µg/mL; with Escherichia coli (setting [8]), 4.1 µg/mL.
